Patent EP0165781A1, “Aromatase inhibiting N-substituted imidazole derivatives” (ELI LILLY AND COMPANY, priority 1984, dated 1985)

Target: T1, aromatase (Rattus norvegicus, UniProt P22443)
T1 construct: ovarian microsomes are obtained from rats treated with pregnant mares serum gonadotropin; from tissue; host or cells: ovarian microsomes of rats treated with pregnant mares serum gonadotropin
T1 sequence (P22443 1-508): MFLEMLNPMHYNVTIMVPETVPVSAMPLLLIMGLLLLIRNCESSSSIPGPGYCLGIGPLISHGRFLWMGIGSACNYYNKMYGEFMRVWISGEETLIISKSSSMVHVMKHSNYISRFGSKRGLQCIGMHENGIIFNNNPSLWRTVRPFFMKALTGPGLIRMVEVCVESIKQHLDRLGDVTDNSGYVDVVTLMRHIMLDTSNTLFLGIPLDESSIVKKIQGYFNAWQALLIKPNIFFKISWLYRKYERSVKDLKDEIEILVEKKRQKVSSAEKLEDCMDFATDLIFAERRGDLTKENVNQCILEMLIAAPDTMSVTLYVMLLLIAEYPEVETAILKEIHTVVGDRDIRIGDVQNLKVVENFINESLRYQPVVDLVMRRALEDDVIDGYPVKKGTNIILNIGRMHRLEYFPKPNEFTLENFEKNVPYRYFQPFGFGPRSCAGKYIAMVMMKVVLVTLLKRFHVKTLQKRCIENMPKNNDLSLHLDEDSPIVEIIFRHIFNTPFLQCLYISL
Assay: isolated rat ovarian microsome aromatase inhibition (modified method of Brodie et al.)
Assay type: biochemical
Settings: rat ovarian microsomes; substrate androstenedione 0.1 µM; [3H]-H2O release; NADPH generating system; read-out: concentration of inhibitor required to produce a 50% inhibition of enzyme activity (EC50)
Description: In this test system, ovarian microsomes are obtained from rats treated with pregnant mares serum gonadotropin. Test compounds are added to reaction vials containing […] 4-androstene-3,17-dione, 100,000 dpm 1,2[^3H]-androstenedione, the microsomes and a NADPH generating system. The concentrations of the inhibitors tested ranged between […]. […] Potency is determined based on the concentration of inhibitor in µM required to produce a 50% inhibition of enzyme activity (EC50) when the concentration of substrate (androstenedione) is 0.1 µM.

CC(=O)N1CCN(c2ccc(OCC3COC(Cn4ccnc4)(c4ccc(Cl)cc4Cl)O3)cc2)CC1 (stereo not shown) [ketoconazole, 1-acetyl-4-[4-([2-(2,4-dichlorophenyl)-2-(1H-imidazol-1-ylmethyl)-1,3-dioxolan-4-yl]methoxy)-phenyl]piperazine]
EC50: 1.1 µM
